Experimental data reported in patent US6555323B2, “Assay for ABCA1” (Pfizer Inc., priority 2000, dated 2003).

Experiments:
[1] = target: T1, acyl-CoA cholesterol acyltransferase (ACAT) (Mus musculus, UniProt Q61263); experiment: ACAT inhibition in labeling medium of J774 cells; format: cell-based; details: 2 μg/ml in labeling medium
T1 construct: endogenous in cells; host or cells: J774 mouse macrophage cell line
T1 sequence (Q61263 1-540): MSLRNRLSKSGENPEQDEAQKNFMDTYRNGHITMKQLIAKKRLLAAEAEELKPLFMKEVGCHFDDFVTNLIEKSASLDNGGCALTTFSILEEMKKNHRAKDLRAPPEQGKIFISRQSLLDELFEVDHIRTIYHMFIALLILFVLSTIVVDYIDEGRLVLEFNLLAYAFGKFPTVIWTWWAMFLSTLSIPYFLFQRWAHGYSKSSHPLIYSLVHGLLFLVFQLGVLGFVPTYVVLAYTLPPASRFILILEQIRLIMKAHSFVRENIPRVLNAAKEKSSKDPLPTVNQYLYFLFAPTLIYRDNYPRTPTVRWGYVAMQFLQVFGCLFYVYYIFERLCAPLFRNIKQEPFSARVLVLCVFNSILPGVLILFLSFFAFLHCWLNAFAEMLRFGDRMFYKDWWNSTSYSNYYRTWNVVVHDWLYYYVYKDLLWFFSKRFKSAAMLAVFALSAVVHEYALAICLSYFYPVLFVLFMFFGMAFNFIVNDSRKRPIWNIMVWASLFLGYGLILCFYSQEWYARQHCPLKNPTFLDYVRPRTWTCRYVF
Protocol: (§1) Cells were seeded in 96 wells (96-well plate, 0.15 ml/well) using 50,000 to 100,000 cells per well and grown in RPMI 1640-10% FBS and 0.5% gentamicin at37° C. for 72 hours to achieve 80-90% confluence. Radiolabeled cholesterol ([1,2-^3H] cholesterol, New England Nuclear) was added to the cells by adding a tracer amount (1-5 μCi/well in a final concentration of 0.1% ethanol) to FBS, which was then diluted to a final concentration of 1% in RPMI. An acyl-CoA cholesterol acyltransferase (ACAT) inhibitor (decanamide, 2-(hexylthio)-N-[6-methyl-2,4-bis(methylthio)-3-pyridinyl]-,(2S)-(9Cl) at 2 μg/ml) was added to the labeling medium. […] Cells were grown in the presence of the radiolabel for two additional days to obtain confluent monolayers. For experiments where cells are enriched in free cholesterol, acetylated LDL (100 μg of protein/ml) was included in the labeling mixture. Following the labeling period, cells were extensively washed using MEM-Hepes medium supplemented with 0.5% gentamicin, and incubated with either cpt-cAMP (positive control) at 0.3 mM or test compounds (varying concentrations may be used, although […] was selected for the present experiment) for an additional 16 hours.

ABCA1 [2] = experiment: Cellular cholesterol efflux to apo-AI from [3H]-cholesterol-labeled J774 macrophages; format: cell-based, mouse; details: 16 hours pretreatment, J774 cells, apo-AI 20 μg/ml acceptor
Protocol: (§2) Stock cultures of J774 mouse macrophage cell line were grown in RPMI 1640 supplemented with 10% FBS and 50 μg/ml gentamicin at 37° C. in a humidified atmosphere containing 95% air and 5% CO2.
as §1
At the end of the pretreatment period with cpt-cAMP or test compounds, cells were extensively washed with MEM-Hepes medium containing gentamicin and incubated in RPMI 1640 medium containing the cholesterol acceptor apo-AI at a final concentration of 20 μg/ml. Parallel monolayers of control or treated cells were also incubated with acceptor-free medium to determine background, non-acceptor mediated cholesterol efflux. Cellular cholesterol efflux was quantified by measuring the release of cellular [^3H]-cholesterol into the medium as a function of time. An aliquot of the incubation medium was filtered using a 0.45 micron Millipore multiscreen plate to remove any floating cells and then counted using a Wallac Microbeta Counter (Perkin-Elmer Life Sciences, Turku, Finland).
The amount of radiolabeled cholesterol released from the cells (% efflux) is determined by the amount of radioactivity present in the incubation medium divided by the radioactivity at time zero (T0). Radtio activty at time zero is calculated as the amount of radioactivity in the cells as determined by isopropanol extraction at the end of the treatment time.

ABCA1 mRNA = ABCA1 mRNA level in treated cells; format: cell-based, mouse
Protocol: In the case where the analysis of ABCA1 expression is required, total RNA may be isolated (e.g., by the method according to Chomczynski et al., N. Anal. Biochem., 162:156 (1987)) and ABCA1 mRNA levels determined by standard techniques such as Northern blotting, slot blot hybridization, or Ribonuclease protection assays using ABCA1 specific mRNA probes.
as §2, §1

ABCA1 [3] = experiment: Cellular cholesterol efflux to apo-AI from [3H]-cholesterol-labeled J774 macrophages; format: cell-based, mouse; details: 1 μM, 16 hours pretreatment, J774 cells, apo-AI 20 μg/ml acceptor

Structure (SMILES)	% of control (cholesterol efflux) (ABCA1 [2]; 5 μM)	other results
CCCCCCCC[C@H](SCCCCCC)C(=O)Nc1c(SC)cc(C)nc1SC [decanamide, 2-(hexylthio)-N-[6-methyl-2,4-bis(methylthio)-3-pyridinyl]-,(2S)-(9Cl)]		ACAT activity [1]: completely inhibited
Cc1nnc2c(N3CCC4(CC3)C(=O)NCN4c3ccccc3)nc(-c3ccccc3)cn12	109 % of control	
COc1ccc(-c2cn3c(C)nnc3c(N3CCC4(CC3)C(=O)NCN4c3ccccc3)n2)cc1OC	111 % of control	
COc1ccc(-c2cn3c(C)nnc3c(N3CCC4(CC3)C(=O)NCN4c3ccccc3)n2)cc1	101 % of control	
COc1cc(-c2cn3c(C)nnc3c(N3CCC4(CC3)C(=O)NCN4c3ccccc3)n2)cc(OC)c1OC	95 % of control	
CCCCC[C@H](O)/C=C/[C@H]1[C@H](O)CC(=O)[C@@H]1CCCCCCC(=O)O [Prostaglandin E1, reference compound]		% of control mRNA (ABCA1 mRNA; 1 μM): 1420 % of control; % of control (cholesterol efflux) (ABCA1 [3]): 210 % of control
Cc1nnc2c(N3CCC4(CC3)C(=O)NCN4c3ccccc3)nc(-c3ccc4c(c3)OCO4)cn12	82 % of control	
Cc1nnc2c(N3CCC4(CC3)C(=O)NCN4c3ccccc3)nc(-c3ccc(O)cc3)cn12	106 % of control	
COc1ccc(-c2cn3c(C)nnc3c(N3CCC(C)(N(C)c4cccc(F)c4)CC3)n2)cc1	94 % of control	
O=S(=O)(c1ccccc1)N(CC(F)(F)F)c1ccc(C(O)(C(F)(F)F)C(F)(F)F)cc1	177 % of control	% of control mRNA (ABCA1 mRNA; 5 μM): 680 % of control
CN(c1ccc(C(O)(C(F)(F)F)C(F)(F)F)cc1)S(=O)(=O)c1ccccc1[N+](=O)[O-]	185 % of control	% of control mRNA (ABCA1 mRNA; 5 μM): 160 % of control
Cc1nnc2n1-c1sccc1C(c1ccccc1)=NC2	102 % of control	
Nc1ncnc2c1nc(Sc1ccc(Cl)cc1)n2[C@@H]1O[C@@H]2COP(=O)(O)O[C@H]2[C@H]1O [cpt-cAMP, reference compound]		% of control mRNA (ABCA1 mRNA; 0.3 mM): 1600 % of control; % of control (cholesterol efflux) (ABCA1 [2]; 0.3 mM): 425 % of control
